Drawing on DBAASP, this text covers MIC for five compounds.

Converted amounts (≈) assume the structure as drawn. “And” between values parts separate entries of the source, which are not always exact repeats. Identical values can stand only once.

Test systems include Escherichia coli D31; Listeria grayi DSM 20601; Acinetobacter baumannii; Streptococcus pyogenes; Escherichia coli; Klebsiella pneumoniae; Staphylococcus aureus; Streptococcus sp.
Holding throughout (experiment): ≥ marks a high value that may be exact or a test limit, other limits are often not marked, values filed in µg/mL are converted to µM
For assay [1], the system named is Micrococcus luteus DSM 20030.
In assay [2] the test system is Listeria monocytogenes DSM 20600.
The subject of assay [3] is Staphylococcus aureus DSM 2569.
Assay [4] relates to Listeria fleischmannii DSM 24998.
For assay [5], the system named is Candida albicans ATCC 36232.
Assay [6] deals with Escherichia coli ATCC 2592.
Assay [7] has as its system Micrococcus luteus ATCC 9341.
Assay [8] has as its system Staphylococcus aureus 1550.
Assay [9] relates to Pseudomonas aeruginosa ATCC 9027.
Assay [10] concerns Staphylococcus aureus ATCC 6538.
Assay [11] relates to Staphylococcus aureus CCARM 3126.
Assay [12] concerns Staphylococcus epidermidis KCTC 1917.
For assay [13], the system named is Salmonella typhimurium CCARM 8003.
Assay [14] has as its system Bacillus subtilis KCTC 3028.
Assay [15] has as its system Salmonella typhimurium CCARM 8007.
In assay [16] the test system is Escherichia coli CCARM 1229.
Assay [17] concerns Salmonella typhimurium KCTC 1926.
In assay [18] the test system is Acinetobacter baumannii CCARM 12036.
Assay [19] concerns Pseudomonas aeruginosa KCTC 1637.
Assay [20] relates to Escherichia coli CCARM 1238.
For assay [21], the system named is Pseudomonas aeruginosa CCARM 2095.
For assay [22], the system named is Staphylococcus aureus CCARM 3089.
Assay [23] has as its system Acinetobacter baumannii KCTC 2508.
The subject of assay [24] is Acinetobacter baumannii CCARM 12035.
The subject of assay [25] is Staphylococcus aureus CCARM 3108.
The subject of assay [26] is Staphylococcus aureus KCTC 1621.
Assay [27] deals with Pseudomonas aeruginosa CCARM 2002.
The subject of assay [28] is Escherichia coli KCTC 1682.
Assay [29] deals with Streptococcus mutans UA159.
The test system of assay [30] is Streptococcus sobrinus ATCC 6715.
The test system of assay [31] is Streptococcus sanguinis ATCC 10556.
Assay [32] relates to Klebsiella pneumoniae KCTC 2208.
Assay [33] deals with Escherichia coli ATCC 25922.
Assay [34] relates to Staphylococcus saprophyticus.
The test system of assay [35] is Staphylococcus epidermidis.
Assay [36] deals with Bacillus subtilis KCTC 2217.
In assay [37] the test system is Bacillus cereus KCTC 1012.
The test system of assay [38] is Staphylococcus aureus ATCC 25923.

On to `CC[C@H](C)[C@H](NC(=O)CNC(=O)[C@H](CO)NC(=O)[C@H](CC(C)C)NC(=O)[C@H](CC(C)C)NC(=O)[C@H](C)NC(=O)[C@H](CO)NC(=O)[C@H](Cc1ccccc1)NC(=O)[C@@H](N)Cc1ccccc1)C(=O)N[C@@H](CCCCN)C(=O)N[C@@H](CO)C(=O)N[C@@H](CC(C)C)C(=O)N[C@@H](Cc1ccccc1)C(N)=O` [FFSALLSGIKSLF], for which the MIC – broadly, the smallest concentration in the dilution series that meets the test's criterion for growth inhibition – in [1] came out at 8 µM (≈ 11.4 µg/mL); in the assay on Escherichia coli D31, 8 µM (≈ 11.4 µg/mL); in assay [2], 8 µM (≈ 11.4 µg/mL); in assay [3] it was 15 µM (≈ 21.4 µg/mL); in the assay with Listeria grayi DSM 20601 it was 15 µM (≈ 21.4 µg/mL); in assay [4], 4 µM (≈ 5.71 µg/mL).
`CC(C)[C@H](NC(=O)[C@H](CCCCN)NC(=O)[C@@H](NC(=O)[C@H](CCCCN)NC(=O)[C@H](Cc1ccccc1)NC(=O)[C@H](CCCCN)NC(=O)[C@@H](NC(=O)[C@H](CCCCN)NC(=O)[C@@H](N)Cc1ccccc1)C(C)C)C(C)C)C(=O)N[C@@H](CCCCN)C(=O)O` [FKVKFKVKVK]: the MIC in assay [5] was 5 µM and 8 µM; in assay [6], 10 µM (≈ 12.5 µg/mL); in assay [7], 4 µM (≈ 5 µg/mL); in [8], 8.8 µM (≈ 11 µg/mL); in assay [9] it was 4.8 µM (≈ 6 µg/mL); in assay [10] it was 7.2 µM (≈ 9 µg/mL).
Take `CC[C@H](C)[C@H](NC(=O)[C@H](C)NC(=O)[C@H](CCC(=O)O)NC(=O)[C@H](Cc1cnc[nH]1)NC(=O)[C@@H](NC(=O)[C@@H]1CCCN1C(=O)[C@H](CCC(N)=O)NC(=O)[C@H](Cc1ccccc1)NC(=O)[C@@H](NC(=O)[C@H](CCCCN)NC(=O)[C@H](CCCCN)NC(=O)[C@H](CC(C)C)NC(=O)[C@H](C)NC(=O)[C@H](CC(N)=O)NC(=O)[C@H](CC(C)C)NC(=O)CN)C(C)C)[C@@H](C)CC)C(=O)N[C@@H](CCCCN)C(=O)N[C@@H](CCCCN)C(=O)N[C@H](C(=O)N[C@@H](CC(N)=O)C(=O)N[C@@H](CC(N)=O)C(=O)N[C@@H](Cc1cnc[nH]1)C(=O)N[C@H](C(=O)N[C@@H](CCC(N)=O)C(=O)O)C(C)C)[C@@H](C)CC` [GLNALKKVFQPIHEAIKKINNHVQ]: the MIC in [11] was at least 64 µM; in [12] it was at least 64 µM; in assay [13] it was 16 µM (≈ 43.8 µg/mL); in assay [14], at least 64 µM; in assay [15], 16 µM (≈ 43.8 µg/mL); in [16], at least 32 µM. For the same compound, the MIC in assay [17] is 16 µM (≈ 43.8 µg/mL); in assay [18], 16 µM (≈ 43.8 µg/mL); in [19] it was 8 µM (≈ 21.9 µg/mL); in assay [20], 16 µM (≈ 43.8 µg/mL); in [21] it was 16 µM (≈ 43.8 µg/mL); in [22], at least 64 µM. Also, the MIC in assay [23] is 16 µM (≈ 43.8 µg/mL); in assay [24], 16 µM (≈ 43.8 µg/mL); in assay [25] it was at least 64 µM; in assay [26] it was at least 64 µM; in assay [27], 16 µM (≈ 43.8 µg/mL); in assay [28] it was 16 µM (≈ 43.8 µg/mL).
As to `CC(C)[C@H](NC(=O)[C@H](CCCN=C(N)N)NC(=O)[C@H](C)NC(=O)[C@H](C)NC(=O)[C@H](CCCCN)NC(=O)[C@H](CCCCN)NC(=O)[C@H](Cc1ccccc1)NC(=O)[C@H](Cc1ccccc1)NC(=O)[C@H](CCCN=C(N)N)NC(=O)CNC(=O)[C@H](Cc1c[nH]c2ccccc12)NC(=O)CN)C(=O)NCC(=O)N[C@@H](CCCCN)C(=O)N[C@@H](CCCN=C(N)N)C(=O)N[C@H](C(=O)NCC(=O)N[C@@H](CCCCN)C(=O)O)C(C)C` [GWGRFFKKAARVGKRVGK], the MIC in [29], in [30] and in [31] was at least 250 µM in each case.
Regarding `CC[C@H](C)[C@H](NC(=O)[C@H](Cc1ccccc1)NC(=O)[C@H](CCCCN)NC(=O)[C@H](CC(C)C)NC(=O)[C@H](C)NC(=O)[C@H](CO)NC(=O)[C@H](CC(C)C)NC(=O)[C@H](Cc1c[nH]c2ccccc12)NC(=O)[C@@H](N)C(C)C)C(=O)NCC(=O)N[C@@H](CCCCN)C(=O)N[C@@H](Cc1cnc[nH]1)C(=O)N[C@@H](CC(C)C)C(=O)N[C@@H](C)C(=O)N[C@@H](CCCCN)C(=O)N[C@@H](Cc1cnc[nH]1)C(=O)N[C@@H](CCC(N)=O)C(=O)N[C@@H](CC(C)C)C(=O)N[C@@H](CO)C(=O)N[C@@H](CCCCN)C(=O)N[C@@H](CC(C)C)C(N)=O` [VWLSALKFIGKHLAKHQLSKL], the MIC in the assay on Acinetobacter baumannii was 4.42 µM and 12.5 µM; in the assay on Streptococcus pyogenes, at least 50 µM; in [32], 2 µM (≈ 4.83 µg/mL); in the assay on Escherichia coli, 12.5 µM (≈ 30.2 µg/mL); against Klebsiella pneumoniae, 50 µM (≈ 121 µg/mL); in assay [23], 2 µM (≈ 4.83 µg/mL). Moreover, the MIC in assay [33] was 1 µM (≈ 2.42 µg/mL); in assay [34] it was 3.1 µM (≈ 7.49 µg/mL); in the assay on Staphylococcus aureus, 3.1 µM and 1.41 µM; in [35], 3.1 µM (≈ 7.49 µg/mL); in assay [36] it was 1 µM (≈ 2.42 µg/mL); against Streptococcus sp. it was 3.1 µM (≈ 7.49 µg/mL). Besides, the MIC in assay [37] was 2 µM (≈ 4.83 µg/mL); in assay [38], 1 µM and > 0.5 µM.
